Source: paper PMC6826623 (2019)

Columns and labels:
Assay in all cases: UV-Vis absorption titration at 316 nm
[1] = test system: 2HY9 (DNA, G4) AAAGGGTTAGGGTTAGGGTTAGGGAA; conditions: 100 mM K+, 50 mM Tris-HCl, pH 7.4, hybrid G4, per base
[2] = test system: hTelo (DNA, G4) AGGGTTAGGGTTAGGGTTAGGG; conditions: 50 mM Tris-HCl
[3] = test system: c-MYC (DNA, G4) TGGGGAGGGTGGGGAGGGTGGGGAAGG; conditions: 100 mM K+, 50 mM Tris-HCl, pH 7.4, parallel G4, per base

COc1ccc2c(c[n+](C)c3c4cc5c(cc4ccc23)OCO5)c1OC
Kb [1]: (1.1 ± 0.1) × 10^5 M^-1
Kb ([2]; 100 mM K+, pH 7.4, 40% (w/v) PEG 200, parallel G4, per base): (3.5 ± 0.9) × 10^5 M^-1
Kb ([2]; 100 mM Na+, pH 7.4, antiparallel G4, per base): (2.69 ± 0.06) × 10^5 M^-1
Kb [3]: (1.0 ± 0.1) × 10^5 M^-1
